The target of one data set is T1, hERG potassium channel (Homo sapiens, UniProt Q12809).
T1 construct: host or cells: CHO
In words: Manual patch-clamp of hERG potassium currents in CHO cells stably expressing hERG channel. The class given is cell-based. The conditions noted are these: read-out: IC50(μM), blocking effect on the hERG potassium ion channel. How it is done:
This example is intended to test the blocking effect of the compounds of the present disclosure on hERG potassium currents in a stable cell strain transfected with an hERG potassium channel by a manual patch-clamp assay.
The cells used in this experiment were from a CHO cell line (provided by Sophion Bioscience, Denmark) transfected with hERG cDNA and stably expressing hERG channel at cell passage number of P5. Cells were cultured in a medium containing the following components (all from Invitrogen): Ham's F12 medium, 10% (v/v) inactivated fetal bovine serum, […] hygromycin B, and […] geneticin. CHO hERG cells were grown in a culture dish containing the above culture medium and cultured in an incubator at 37° C. with 5% CO2. […]
In this experiment, a manual patch-clamp system (HEKA EPC-10 signal amplifier and digital conversion system, purchased from HEKA Electronics, Germany) was used for whole cell current recording. […] After the hERG potassium currents recorded in the above step were stable under the continuous extracellular fluid perfusion in the recording chamber, the drug to be tested could be added for perfusion until the inhibition effect of the drug on the hERG current reached a stable state. […]
The blocking effect of the compound of the present disclosure on hERG potassium currents was determined by the above test.
In general terms: Patch clamp records ionic current or voltage across a cell membrane.

Data set [1] in a line: Pharmacokinetic evaluation in nude mice. The class given is in vivo. Particulars: female, mouse, plasma, po, BALB/C nude mice, intragastric administration, 50 mg/kg. How it is done:
The drug concentration in the plasma of the test animals (nude mice) at different time points after intragastric administration (i.g.) of compound 18-p1 was determined by using an LC/MS/MS method. The pharmacokinetic behavior of the compound of the present disclosure in nude mice was studied and its pharmacokinetic profile was evaluated.
Nine BALB/C nude mice, female, intragastric administration, purchased from Beijing Vital River Laboratory Animal Technology Co., Ltd., with animal production license number of SCXK (Shanghai) 2017-0005.
An amount of compound 18-p1 was weighed, dissolved in 0.5% by volume of CMCNa, and then prepared into a 2.5 mg/mL clear solution with 99.5% normal saline.
The nude mice were intragastrically administered at a dose of 50.0 mg/kg and a volume of 20.0 mL/kg.
The compound 18-p1 was administered intragastrically to nude mice, and 0.1 mL of blood was collected from the orbit before administration and 0.25 h, 0.5 h, 1.0 h, 2.0 h, 4.0 h, 6.0 h, 8.0 h, 11.0 h and 24.0 h after administration. The blood was placed in an EDTA-K2 anticoagulation tube and centrifuged at 10,000 rpm for 1 min (4° C.), and plasma was separated out within 1 h and then stored at −20° C. for testing. The process from blood sampling to centrifugation was performed under an ice bath.
The content of the test compounds at different concentrations in plasma of nude mice after administration was determined: 25 μL of plasma of nude mice at each time point after administration was taken, and 200 μL of acetonitrile (containing 50 μL of internal standard solution camptothecin, 100 ng/mL) was added; the mixture was vortexed for 5 min, and centrifuged for 10 min (4000 r/min). 0.5 μL of supernatant was taken from the plasma sample for LC/MS/MS analysis.

Bounds are passed on as bounds.

By IC50 is commonly meant the concentration that gives 50% inhibition. What is called half-life is the time in which the quantity being followed falls by half.

T1 sequence (Q12809 whole entry): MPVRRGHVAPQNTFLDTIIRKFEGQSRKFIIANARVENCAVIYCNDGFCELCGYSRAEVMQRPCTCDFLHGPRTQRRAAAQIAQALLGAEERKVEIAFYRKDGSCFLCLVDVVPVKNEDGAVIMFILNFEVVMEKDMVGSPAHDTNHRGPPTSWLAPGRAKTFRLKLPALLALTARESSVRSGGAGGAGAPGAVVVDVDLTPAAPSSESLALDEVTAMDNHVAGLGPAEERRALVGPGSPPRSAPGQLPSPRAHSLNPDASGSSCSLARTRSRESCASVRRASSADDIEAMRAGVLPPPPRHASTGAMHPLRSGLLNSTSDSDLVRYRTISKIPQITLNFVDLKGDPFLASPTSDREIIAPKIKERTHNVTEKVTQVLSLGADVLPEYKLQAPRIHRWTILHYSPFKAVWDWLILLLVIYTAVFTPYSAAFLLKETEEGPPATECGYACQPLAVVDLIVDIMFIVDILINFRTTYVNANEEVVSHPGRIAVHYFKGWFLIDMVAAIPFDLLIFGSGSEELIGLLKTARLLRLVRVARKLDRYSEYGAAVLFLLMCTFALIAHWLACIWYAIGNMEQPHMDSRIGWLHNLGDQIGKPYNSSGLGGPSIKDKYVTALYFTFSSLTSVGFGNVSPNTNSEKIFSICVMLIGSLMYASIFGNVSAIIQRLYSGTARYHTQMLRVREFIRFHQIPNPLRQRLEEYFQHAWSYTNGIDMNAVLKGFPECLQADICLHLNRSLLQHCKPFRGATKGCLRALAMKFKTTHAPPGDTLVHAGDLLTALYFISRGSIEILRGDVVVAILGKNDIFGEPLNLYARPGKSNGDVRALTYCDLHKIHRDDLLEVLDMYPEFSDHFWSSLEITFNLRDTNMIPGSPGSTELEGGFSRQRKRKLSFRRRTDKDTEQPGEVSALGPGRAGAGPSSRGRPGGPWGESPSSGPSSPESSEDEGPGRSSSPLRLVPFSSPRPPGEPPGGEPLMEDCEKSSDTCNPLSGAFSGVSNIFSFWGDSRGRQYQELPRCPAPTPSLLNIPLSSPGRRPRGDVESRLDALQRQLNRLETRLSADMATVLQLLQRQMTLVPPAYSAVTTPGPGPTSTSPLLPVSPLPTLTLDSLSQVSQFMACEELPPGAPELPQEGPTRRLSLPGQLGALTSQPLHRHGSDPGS

In the case of `Cc1nc(N[C@H](C)c2cccc(C(F)F)c2F)c2cc([C@]3(O)CC[C@@H](O)CC3)c(=O)[nH]c2n1` [Example 18-p1, 4-(((R)-1-(3-(difluoromethyl)-2-fluorophenyl)ethyl)amino)-6-((1s,4S)-1,4-dihydroxycyclohexyl)-2-methylpyrido[2,3-d]pyrimidin-7(8H)-one], the 50% inhibitory concentration (IC50) on hERG potassium channel is over 30 µM. The Vd/F in data set [1] (read-out: Apparent distribution volume Vz/F) came out at 16.6 L/kg. In data set [1] (read-out: Area under curve AUC0-t), the AUC(0-t) turned out to be 5.15 µg·h/mL. Besides, in data set [1] (read-out: Clearance CLz/F), the CL/F was found to be 9.6 L/h/kg. Besides, the half-life in data set [1] (read-out: Half-life T½ (converted)) is 1.2 h. In data set [1] (read-out: Plasma concentration Cmax), the Cmax turned out to be 1.55 µg/mL.
